Test results from patent publication US6660246B1, “Ligands and metal complexes thereof” (Bracco International, BV, priority 1994, dated 2003).
Structures can show the parent of a compound that is named as a salt.

Row | Structure (SMILES) | melting point
1 | CN/N=C(\C)C(C)(C)NCCCNC(C)(C)/C(C)=N/O (as salt: hydrochloride) [Example 2, 3,3,9,9-Tetramethyl-4,8-diazaundecane-2,10-dione 2-(2-Methylhydrazone) 10-Oxime] | 175 to 177 °C
2 | C/C(=N\O)C(C)(C)NCCCNC(C)(C)/C(C)=N/NC(=O)c1ccccc1 (as salt: trifluoroacetate) [Example 4, 3,3,9,9-Tetramethyl-4,8-diazaundecane-2,10-dione 2-(2-Benzoylhydrazone) 10-Oxime] | 95 to 96 °C
3 | C/C(=N\N)C(C)(C)NCCCNC(C)(C)/C(C)=N/O [Example 1, 3,3,9,9-Tetramethyl-4,8-diazaundecane-2,10-dione 2-Hydrazone 10-Oxime] | 125 to 126 °C
4 | C/C(=N\O)C(C)(C)NCCCNC(C)(C)/C(C)=N/Nc1ccccc1 [Example 3, 3,3,9,9-Tetramethyl-4,8-diazaundecane-2,10-dione 2-(2-Phenyl-hydrazone) 10-Oxime] | 145 to 146 °C
5 | C/C(=N\N)C(C)(C)NCCCNC(C)(C)/C(C)=N/N [Example 5, 3,3,9,9-Tetramethyl-4,8-diazaundecane-2,10-dione Bishydrazone] | 95 to 96 °C
6 | C/C(=N\O)C(C)(C)NCCNC(C)(C)/C(C)=N/Nc1ccccc1 [Example 6, 3,3,8,8-Tetramethyl-4,8-diazadecane-2,9-dione 2-(2-Phenylhydrazone) 9-Oxime] | 95 to 97 °C
